Test results taken from patent US20200121620A1, “SENOLYTIC COMPOUNDS” (UNITED KINGDOM RESEARCH AND INNOVATION, priority 2017, published 2020).
Structures can show the parent of a compound that is named as a salt.

How the values were obtained:
[1] = tested on: IMR90 ER:RAS cells; experiment: Senolysis in presence or absence of pan-caspase inhibitor QVD (apoptosis); type: cell-based, human; settings: 2 or 3 days treatment, with or without QVD; FIG. 13
Description: FIG. 13: Several of the senolytic agents kill senescent cells by inducing apoptosis. […] Consequently cells were treated with DMSO, ABT-263 or the indicated senolytics for 2 (A) or 3 days (B) in the presence (right bar) or absence (left bar) of the pan-caspase inhibitor QVD. Treatment of senescent cells with senolytics kills them, but is prevented in the case of PF-573228, rottlerin and rotenone by pre-treatment with the pan-caspase inhibitor QVD. ABT, ABT-263; PF, PF-573228; JFD, JFD 00244; DPI, diphenyleneiodonium.
Experiments were conducted to investigate the mechanism by which the senolytics caused the elimination of senescent cells using a pan-caspase inhibitor (QVD).
Several of the agents described herein kill senescent cells by inducing apoptosis. […] Consequently, cells were treated with DMSO, ABT-263 or the indicated senolytics for 2 (A) or 3 days (B) in the presence or absence of the pan-caspase inhibitor QVD. Treatment of senescent cells with senolytics kills them, but is prevented in the case of PF-573228, rottlerin and rotenone by pre-treatment with the pan-caspase inhibitor QVD (see FIG. 13).

[2] = tested on: IMR90 Cherry and IMR90 ER:RAS GFP cells; experiment: Mixed cultures of normal (IMR90 Cherry) and senescent (IMR90 ER:RAS GFP) cells; type: cell-based, human; settings: IMR90 Cherry mixed with IMR90 ER:RAS GFP, 4OHT; FIG. 14
Source text: FIG. 14: Senolytic agents JFD 00244 and Rottlerin specifically eliminate senescent cells in mixed cultures containing normal and senescent cells. (A) Setup of the experiments, in which normal cells (IMR90 Cherry) are mixed with IMR90 ER:RAS GFP cells (which become senescent in the presence of 4OHT). (B) Representative pictures showing the mixed cultures treated with the indicated drugs. In the bottom row, upon 4OHT the IMR90 ER:RAS GFP cells are senescent. (C) Quantification of the IMR90 Cherry (left bar) and IMR90 ER:RAS GFP (right bar) in the mixed cultures.
The above experiments were all performed comparing the effects of the drugs in cultures of normal and senescent cells. To understand whether the drugs selectively kill senescent cells from a mixed culture, experiments were conducted using Cherry-labelled normal IMR90 cells and GFP labelled IMR90 ER:RAS cells that could be induced to undergo senescence upon treatment with 4OHT (FIG. 14A).
Compounds JFD 00244 and Rottlerin specifically eliminate senescent cells in mixed cultures containing normal and senescent cells (see FIG. 14). (A) Setup of the experiments, in which normal cells (IMR90 Cherry) are mixed with IMR90 ER:RAS GFP cells (which become senescence in the presence of 4OHT). […] (C) Quantification of the IMR90 Cherry and IMR90 ER:RAS GFP in the mixed cultures.

[3] = tested on: IMR90 ER:RAS cells; experiment: Senolytic activity in IMR90 ER:RAS cells undergoing oncogene-induced senescence (4OHT) vs DMSO-treated non-senescent cells; settings: for death of cells undergoing oncogene induced senescence: 100 nM 4OHT, treated 6 days after induction at indicated concentrations, FIG. 18; for ability of FAK inhibitors to kill differentially senescent cells (4OHT induced) vs non-senescent cells (DMSO treated): FIG. 12; for senolytic properties: selective reduction of senescent (+4OHT) vs normal (−4OHT) cell numbers: 10 μM added 6 days after 100 nM 4OHT, cell numbers 4 days after (DAPI or crystal violet), FIG. 1, FIG. 10
Description: FIG. 1: (A) IMR90 ER:RAS cells were induced to undergo senescence by treating them with 100 nM 4OHT for 6 days. At that point, 10 μM of the indicated drugs was added. In parallel, the same treatments were carried out in IMR90 ER:RAS cells treated with DMSO (−4OHT). […] Cells were fixed at day 6, 8 and 10 after 4OHT induction and stained with crystal violet to assess cell viability. T, Tyr-AG879; P, PF-573228; C, Cyclosporine. (B) A similar experiment to (A) was conducted and cells at day 10 post-induction were fixed and stained with DAPI to assess cell numbers
In the setup used, IMR90 ER:RAS cells were treated with 100 nM 4OHT to induce OIS (oncogene induced senescence) and activate the ER:RAS fusion protein. 6 days after 4OHT induction (+4OHT), once cells were fully senescent, the agents to be tested were added at a concentration of 10 μM, and cell numbers were assessed 4 days after by DAPI stained couple to automated microscopy. Alternatively, cells were fixed and stained with crystal violet. In parallel, the same treatments were carried out in IMR90 ER:RAS cells treated with DMSO (−4OHT).
IMR90 ER:RAS cells were induced to undergo senescence by treating them with 100 nM 4OHT for 6 days. At that point, 10 μM of the indicated drugs was added. In parallel, the same treatments were carried out in IMR90 ER:RAS cells treated with DMSO (−4OHT). […] Cells were fixed at day 6, 8 and 10 after 4OHT induction and stained with crystal violet to assess cell viability. A similar experiment was conducted and cells at day 10 post-induction were fixed and stained with DAPI to assess cell numbers (see FIG. 1).

[4] = tested on: IMR90 cells undergoing OIS; experiment: Western blot of cleaved caspase 3 in IMR90 cells undergoing OIS; type: cell-based, human; settings: FIG. 17
Source text: Western blot showing cleaved caspase 3 upon treatment of IMR90 cells undergoing OIS with cardiac glycosides.

[5] = cited from earlier work
[6] = in vivo; cited from earlier work
[7] = tested on: senescent cells in the lung; experiment: Elimination of senescent cells induced by whole body irradiation in mice; type: in vivo; settings: 6 Gray whole body irradiation; 2 months later treated for 4 consecutive days; FIG. 16
Source text: (A) Experimental set up, mice (n=5 per group) were irradiated with 6 Gray to induce senescence. […] (B) Cryosections of lungs obtained from control and irradiated mice were stained with hematoxilin and eosin (to reveal tissue architecture), and SA-β-Gal (to reveal senescent cells). Senescent cells accumulate in the bronchioles of irradiated mice. (C) Quantification of the lung area positive for SA-β-Gal staining. […] (D). Representative pictures of lung cryosections.
Whole-body irradiation is known to cause senescence. In irradiated mice, senescent cells accumulate in different tissues, including the lung (Chang et al., 2016; Yosef et al., 2016).

[8] = use in vivo; cited from earlier work
[9] = tested on: senescent cells in the lung; experiment: Elimination of senescent cells induced by Doxorubicin treatment in mice; type: in vivo; settings: single dose 10 mg/kg Doxorubicin; 2 months later treated for 4 consecutive days; FIG. 15
Description: (A) Experimental set up, mice (n=5 per group) were administered with a single dose of 10 mg/kg of Doxorubicin. […] (B) Cryosections of lungs obtained from control and doxorubicin treated mice were stained with hematoxilin and eosin (to reveal tissue architecture), and SA-β-Gal (to reveal senescent cells). Senescent cells accumulate in the bronchioles of doxorubicin-treated mice. (C) Quantification of the lung area positive for SA-β-Gal staining. […] (D) Representative pictures of lung cryosections.
Further experiments investigated whether the senolytic agents were capable of eliminating senescent cells in vivo. […] These senescent cells are responsible for some of the side-effects associated with chemotherapy and can fuel the growth of cancerous cells (Demaria et al., 2016). […] Doxorubicin treatment induces senescence in the lung.

[10] = tested on: old mice; experiment: Intermittent ouabain treatment of old mice (ageing experiment); type: in vivo
Description: (A) 24 month old female mice were subjected to the schedule summarized in this panel. […] (B) Results of rotarod test that assess the physical fitness and coordination of mice. Left bar=saline, right bar=Ouabain.
The concentrations of Albumin (A), Amylase (B) and PHOS (C) on plasma were measured in mice from the aging experiment described in FIG. 21A. 90 days old female mice were included as a comparison (young).

[11] = tested on: Nras^G12V-positive senescent hepatocytes; experiment: Model of liver cancer initiation (NrasG12V hydrodynamic tail vein injection); type: in vivo; settings: CB17 SCID/beige mice, 1 mg/kg ip for 3 days from day 5, livers day 9
Source text: (A) CB17 SCID/beige mice immunosuppressed mice were subjected to hydrodynamic tail vein injection to express NrasG12V on the liver and induce oncogene-induced senescence on hepatocytes as described in Kang et al (Nature 2011, PMID: 22080947).

CC(=O)c1c(O)c(C)c(O)c(Cc2c(O)c3c(c(C(=O)/C=C/c4ccccc4)c2O)OC(C)(C)C=C3)c1O [Rottlerin]
elimination of senescent cells with pan-caspase inhibitor QVD (apoptosis induction) [1]: selectively induce apoptosis of senescent cells
selective elimination of senescent cells from mixed cultures [2]: selective elimination of senescent cells from the co-cultures

C[C@H]1O[C@@H](O[C@H]2[C@@H](O)C[C@H](O[C@H]3[C@@H](O)C[C@H](O[C@H]4CC[C@@]5(C)[C@H](CC[C@@H]6[C@@H]5C[C@@H](O)[C@]5(C)[C@@H](C7=CC(=O)OC7)CC[C@]65O)C4)O[C@@H]3C)O[C@@H]2C)C[C@H](O)[C@@H]1O [Digoxin]
death of cells undergoing oncogene induced senescence [3]: dose-dependent death of cells undergoing oncogene induced senescence
cleaved caspase 3 (apoptosis in senescent cells) [4]: induces apoptosis in senescent cells

CN(C)CC[C@H](CSc1ccccc1)Nc1ccc(S(=O)(=O)NC(=O)c2ccc(N3CCN(Cc4ccccc4-c4ccc(Cl)cc4)CC3)cc2)cc1[N+](=O)[O-] [ABT-737]
solubility [5]: low
oral bioavailability [6]: low

CNC(=O)c1ccc(Nc2ncc(C(F)(F)F)c(NCc3nccnc3N(C)S(C)(=O)=O)n2)cc1 [Defactinib]
ability of FAK inhibitors to kill differentially senescent cells (4OHT induced) vs non-senescent cells (DMSO treated) [3]: preferentially kill senescent cells in a dose-dependent manner

CC1(C)CCC(c2ccc(Cl)cc2)=C(CN2CCN(c3ccc(C(=O)NS(=O)(=O)c4ccc(N[C@H](CCN5CCOCC5)CSc5ccccc5)c(S(=O)(=O)C(F)(F)F)c4)cc3)CC2)C1 [ABT-263]
lung area positive for SA-β-Gal staining (senescent cells) [7]: partially eliminated
side-effect [8]: significant thrombocytopenia
lung area positive for SA-β-Gal staining (senescent cells) [9]: partially eliminated

O=C1c2ccccc2C(=O)c2c(NCCc3ccc(O)cc3)ccc(NCCc3ccc(O)cc3)c21 [JFD00244, 1,4-Bis[(p-hydroxy-phenethyl)amino]-anthraquinone]
selective elimination of senescent cells from mixed cultures [2]: selective elimination of senescent cells from the co-cultures

CC(C)c1c(C(=O)Nc2ccccc2)c(-c2ccccc2)c(-c2ccc(F)cc2)n1CC[C@@H](O)C[C@@H](O)CC(=O)O [Atorvastatin calcium]
senolytic effect of statins, preferential killing of cells undergoing OIS ([3]; 4OHT vs DMSO, FIG. 11): behaves as a senolytic in concentration dependent manner

Cyclosporine
senolytic properties: selective reduction of senescent (+4OHT) vs normal (−4OHT) cell numbers [3]: showed the most promising senolytic properties

CS(=O)(=O)c1cccc(CNc2nc(Nc3ccc4c(c3)CCC(=O)N4)ncc2C(F)(F)F)c1 [PF-573228, 6-[4-(3-methyane-sulfonyl-benzyl-amino)-5-trifluoro-methyl-pyrimidin-2-ylamino]-3,4-dihydro-1H-quinolin-2-one]
elimination of senescent cells with pan-caspase inhibitor QVD (apoptosis induction) [1]: selectively induce apoptosis of senescent cells
senolytic properties: selective reduction of senescent (+4OHT) vs normal (−4OHT) cell numbers [3]: showed the most promising senolytic properties
ability of FAK inhibitors to kill differentially senescent cells (4OHT induced) vs non-senescent cells (DMSO treated) [3]: preferentially kill senescent cells in a dose-dependent manner

CC(C)(C)c1cc(/C=C(\C#N)C(N)=S)cc(C(C)(C)C)c1O [Tyrphostin AG879, (2E)-3-[3,5-Bis(1,1-dimethylethyl)-4-hydroxyphenyl]-2-cyano-2-propenethioamide]
senolytic properties: selective reduction of senescent (+4OHT) vs normal (−4OHT) cell numbers [3]: showed the most promising senolytic properties

Nc1cc(N)c(N)cc1N [NSC 677249, 1,2,4,5- Benzenetetramine tetrahydrochloride]
ability of FAK inhibitors to kill differentially senescent cells (4OHT induced) vs non-senescent cells (DMSO treated) [3]: preferentially kill senescent cells in a dose-dependent manner

C=C(C)[C@H]1Cc2c(ccc3c2O[C@@H]2COc4cc(OC)c(OC)cc4[C@@H]2C3=O)O1 [Rotenone, (2R,6aS,12aS)-1,2,6,6a,12,12a-hexahydro-2-isopropenyl-8,9-dimethoxychromeno[3,4-b]furo(2,3-h)chromen-6-one]
elimination of senescent cells with pan-caspase inhibitor QVD (apoptosis induction) [1]: selectively induce apoptosis of senescent cells

C[C@]12CC[C@H](O)C[C@H]1CC[C@@H]1[C@@H]2CC[C@]2(C)[C@@H](c3ccc(=O)oc3)CC[C@]12O [Bufalin, (3β,5β)-3,14-Dihydroxybufa-20,22-dienolide]
death of cells undergoing oncogene induced senescence [3]: dose-dependent death of cells undergoing oncogene induced senescence

C[C@@H]1O[C@@H](O[C@H]2C[C@@H](O)[C@]3(CO)[C@H]4[C@H](O)C[C@]5(C)[C@@H](C6=CC(=O)OC6)CC[C@]5(O)[C@@H]4CC[C@]3(O)C2)[C@H](O)[C@H](O)[C@H]1O [Ouabain]
death of cells undergoing oncogene induced senescence [3]: dose-dependent death of cells undergoing oncogene induced senescence
senolytic activity on adding KCl (increased intracellular K+) ([3]; with KCl, FIG. 20A): prevented by increasing the intracellular K^+ concentration by adding KCl
senolytic activity on inhibition of p38 ([3]; with p38 inhibition, FIG. 20B): partially prevents the senolytic properties of ouabain
rotarod test (physical fitness and coordination) ([10]; 24 month old female mice, 1 mg/kg ip, 3 consecutive days on treatment weeks, FIG. 21): improves the physical fitness of old mice
concentrations of Albumin, Amylase and PHOS on plasma ([10]; old mice of FIG. 21A vs young (90 days old), FIG. 22): reverts ageing-associated changes of metabolites in blood
SA-β-Gal positive cells in the liver ([10]; old mice, FIG. 24): decreased senescence-associated β-galactosidase positive cells in the liver
expression of Cdkn2a mRNA (p16Ink4a) ([10]; qRT-PCR, liver, kidney and muscle of old female mice, FIG. 23): can be reduced after ouabain treatment
cleaved caspase 3 (apoptosis in senescent cells) [4]: induces apoptosis in senescent cells
lung area positive for SA-β-Gal staining (senescent cells) [7]: partially eliminated
lung area positive for SA-β-Gal staining (senescent cells) [9]: partially eliminated
SA-b-gal activity in liver ([11]; FIG. 25B): reduced
p21-positive cells ([11]; FIG. 25C): reduced
Nras-positive preneoplastic hepatocytes ([11]; FIG. 25D): reduced
